Test results published in patent US9239329B2 (priority 2006, dated 2016).

What was measured:
[1] = type: binding; settings: 2.0 μM protein in PBS-T, 150 μl/min for 5 min, room temperature; FIG. 3
A/Guizhou/54/89(H3N2) = type: binding, influenza virus; settings: virus 100 HAU in PBS, 150 μl/min for 5 min, room temperature
A/Fukuoka/C29/85(H3N2) = type: binding, influenza virus; settings: virus 100 HAU in PBS, 150 μl/min for 5 min, room temperature

Row | Substance | interaction of protein with immobilized sugar chains (increase in brightness at spot positions, SPR) [1] | interaction between sugar chain and influenza virus (SPR signal intensity) (A/Guizhou/54/89(H3N2)) | interaction between sugar chain and influenza virus (SPR signal intensity) (A/Fukuoka/C29/85(H3N2))
1 | wheat germ agglutinin | interacted with the sugar chains immobilized at the spot positions |  | 
2 | bovine serum albumin | increase in brightness at none of the spot positions |  | 
3 | concanavalin A | interacted with the sugar chains immobilized at the spot positions |  | 
4 | Neu5Acα2-6Galβ1-4Glc |  | limited interaction | strong interaction
